A short description of data set [1]: water solubility compared to DMSO by HPLC. It counts as physicochemical. The settings on record: 50 mg/ml; for Percentage of water solubility compared to the samples dissolved in DMSO: 1 hour stirring at room temperature, filtered, HPLC. Here is the method:
Solutions are prepared in DMSO and in water for each of the molecules. All the samples are prepared at a final concentration of 50 mg/ml. After stirring for 1 hour at room temperature, the samples are filtered and a HPLC is performed.
In order to calculate the percentage of solubility of each of the molecules, the area of the peak of the sample dissolved in water and in DMSO obtained by HPLC is determined. The results are given as a percentage of solubility of the compound dissolved in water in the compound dissolved in DMSO.

Data set [2] has as its target T1, tyrosinase (Homo sapiens, UniProt P14679).
T1 construct: the cells were trypsinised and lysated in PBS pH 7.0 with 1% Triton X-100; host or cells: human melanocytes (primary), stimulated with 2 mM L-tyrosine; Triton X-100 lysate
T1 sequence (P14679 19-529): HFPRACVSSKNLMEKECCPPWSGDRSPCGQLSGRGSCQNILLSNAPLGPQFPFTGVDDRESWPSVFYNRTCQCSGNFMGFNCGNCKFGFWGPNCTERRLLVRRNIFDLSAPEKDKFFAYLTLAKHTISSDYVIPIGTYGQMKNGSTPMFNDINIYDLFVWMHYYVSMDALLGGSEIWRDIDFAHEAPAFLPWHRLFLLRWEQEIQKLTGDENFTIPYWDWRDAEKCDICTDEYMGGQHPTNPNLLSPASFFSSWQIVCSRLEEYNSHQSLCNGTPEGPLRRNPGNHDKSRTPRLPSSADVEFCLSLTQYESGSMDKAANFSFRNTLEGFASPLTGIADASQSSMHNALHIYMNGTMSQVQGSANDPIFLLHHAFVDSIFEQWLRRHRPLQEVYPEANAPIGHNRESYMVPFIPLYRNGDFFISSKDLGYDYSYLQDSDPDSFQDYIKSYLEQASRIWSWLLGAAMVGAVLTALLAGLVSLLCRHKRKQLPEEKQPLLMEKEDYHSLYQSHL
Briefly: tyrosinase activity in lysate of L-tyrosine-stimulated human melanocytes (L-DOPA/MBTH). It counts as biochemical. The settings on record: L-tyrosine-stimulated control = 100%. Here is the method: Given the results, an in vitro assay was conducted on human melanocytes. In order to stimulate melanogenic activity in the cells they were treated with L-tyrosine. This compound, in addition to being a substrate of the tyrosinase enzyme, key to melanin synthesis, is capable of activating cell receptors that activate the melanogenesis-regulating signalling pathways (Slominski A, et al. L-tyrosine and L-dihydroxyphenylalanine as hormone-like regulators of melanocyte functions. Pigment Cell Melanoma Res. 2012; 25(1):14-27). This condition is aimed at stimulating melanogenesis in melanocytes for the purpose of extracting tyrosinase and testing the effect of the molecules of the invention.
Thus, human melanocytes were cultured in culture medium (#PCS-200-013, ATCC) and L-tyrosine (2 mM) for 3 days. After the stimulation treatment, the cells were trypsinised and lysated in PBS pH 7.0 with 1% Triton X-100. The cell lysate, which contains tyrosinase, was incubated together with the molecules of the invention at different concentrations (0.1 and 1 mM), L-DOPA and MBTH (Winder A J and Harris H. New assays for the tyrosine hydroxylase and dopa oxidase activities of tyrosinase. Eur. J. Biochem. 1991; 198(2):317-26). L-DOPA acts as a substrate for tyrosinase in the enzyme reaction and MBTH is a compound that bonds to the […] formed from the oxidation of L-DOPA, generating a colour complex. Each of the conditions used was prepared in triplicate. Lastly, absorbance at 492 nm was monitored using a spectrophotometer every 10 min for 2-5 h.

Data set [3] concerns human melanocytes. Briefly: melanin content in L-tyrosine-stimulated human melanocytes. It counts as cell-based. The settings on record: 3 days, L-tyrosine 2 mM, stimulated control = 100%. Here is the method: (§1) With the aim of studying the inhibition of molecules in melanin, an in vitro assay was conducted on human melanocytes using similar conditions to those described in the tyrosinase inhibition assay. L-tyrosine is used to stimulate melanogenic activity in cells with the aim of extracting the melanin. Here, only the molecules with the best tyrosinase-inhibiting activity were tested (formulas (II) and (III)). In this experiment, the concentration of molecules used is the highest possible taking into account the melanocyte cytotoxicity value, 1.25 mM for the molecule of formula (II) and 0.33 mM for the molecule of formula (III).
Thus, human melanocytes are cultured in culture medium (#PCS-200-013, ATCC). L-tyrosine (2 mM) was added together with the molecule treatment. All the conditions were prepared in triplicate. After incubating the cells with the treatments for 3 days, they were trypsinised and lysated in 1M NaOH. Cell lysate absorbance at 340 nm was measured using a spectrophotometer. The absorbance value is directly proportional to melanin content.

The test system of data set [4] is melanocyte. Briefly: melanocyte cytotoxicity. Type of data set: cell-based. The settings on record: human melanocytes. The procedure:
as §1

The structures appear in SMILES notation. “And” between values parts separate entries of the source, which are not always exact repeats. Equal values may be shown once.

Turning to `O=C(/C=C/c1ccc(O)c(S(=O)(=O)O)c1)c1ccc(O)c(S(=O)(=O)O)c1` [II, 5-[(E)-2-(4-hydroxy-3-sulfobenzoyl)-1-ethenyl]-2-hydroxybenzenesulfonic Acid], in data set [1], the “water solubility (in words)” value was “highly soluble”. Also, in data set [1], the “Percentage of water solubility compared to the samples dissolved in DMSO” value (“Percentage of water solubility” below) is 81%. Besides, the “Percentage of tyrosinase activity” value is 97% and 97 ± 0% in data set [2] (0.1 mM); 55% and 55 ± 1% in data set [2] (1 mM). Further, the melanin content in data set [3] (1.25 mM) is listed as 78±7%. Besides, the “highest possible concentration taking into account the melanocyte cytotoxicity value” in data set [4] is recorded as 1.25 mM.

Consider `O=C(/C=C/c1ccc(O)cc1)c1ccc(O)c(S(=O)(=O)O)c1` [III, 5-[(E)-3-(p-hydroxyphenyl)acryloyl]-2-hydroxybenzenesulfonic Acid], for which the “water solubility (in words)” value in data set [1] is “highly soluble”. Moreover, in data set [1], the “Percentage of water solubility” value amounted to 84%. Further, the “Percentage of tyrosinase activity” value is 82% and 82 ± 2% in data set [2] (0.1 mM); 44% and 44 ± 1% in data set [2] (1 mM). Besides, in data set [3] (0.33 mM), the melanin content turned out to be 49±7%. In data set [4], the “highest possible concentration taking into account the melanocyte cytotoxicity value” is 0.33 mM.

With `O=C(/C=C/c1ccc(O)c(S(=O)(=O)[O-])c1)c1ccc(O)c(S(=O)(=O)[O-])c1.[K+].[K+]` [IV M = K, 5-[(E)-2-(4-hydroxy-3-sulfonatebenzoyl)-1-ethenyl]-2-hydroxybenzenesulfonate, Dipotassium Salt], the “Percentage of water solubility” value in data set [1] is on record as 100%. Besides, the figures for the “Percentage of tyrosinase activity” value in data set [2] (0.1 mM) and in data set [2] (1 mM) were more than 97% and 97 ± 1%, respectively.

In the case of `O=C(/C=C/c1ccc(O)cc1)c1ccc(O)cc1` [Reference molecule, (E)-1,3-bis(p-hydroxyphenyl)-2-propen-1-one, reference compound], in data set [1], the “water solubility (in words)” value is given as “fully water soluble” and the “Percentage of water solubility” value amounted to 0%. For the same compound, in data set [2] (0.1 mM), the “Percentage of tyrosinase activity” value stood at 97 ± 3%. The “Percentage of tyrosinase activity” value in data set [2] (1 mM) worked out at 84 ± 4%.

As for `CCN(CC)CC.O=C(/C=C/c1ccc(O)cc1)c1ccc(O)c(S(=O)(=O)O)c1` [V M = (C2H5)3N, 5-[(E)-3-(p-hydroxyphenyl)acryloyl]-2-triethylammonium hydroxybenzenesulfonate], the “Percentage of water solubility” value in data set [1] worked out at 100%. The results for the “Percentage of tyrosinase activity” value in data set [2] (0.1 mM) and in data set [2] (1 mM) were more than 97% and 83 ± 0%, respectively.

Turning to `O=C(/C=C/c1ccc(O)cc1)c1ccc(O)c(S(=O)(=O)[O-])c1.[Na+]` [V M = Na, 5-[(E)-3-(p-hydroxyphenyl)acryloyl]-2-sodium Hydroxybenzenesulfonate], the “Percentage of water solubility” value in data set [1] was determined as 100%. The “Percentage of tyrosinase activity” value in data set [2] (0.1 mM) was more than 97%; in data set [2] (1 mM), 82 ± 3%.

Take `O=C(CCc1ccc(O)c(S(=O)(=O)[O-])c1)c1ccc(O)c(S(=O)(=O)[O-])c1.[K+].[K+]` [VI M = K, 2-hydroxy-5-[2-(4-hydroxy-3-sulfonatebenzoyl)ethyl]-benzenesulfonate, Dipotassium Salt]: in data set [1], the “Percentage of water solubility” value was determined as 100%. Further, the “Percentage of tyrosinase activity” value is recorded as more than 97% in data set [2] (0.1 mM) and 91 ± 3% in data set [2] (1 mM).

(Values after patent publication US12558302B2, “Tyrosinase-inhibiting molecules and dermopharmaceutical composition that includes them” (MESOESTETIC PHARMA GROUP, S.L, priority 2021, dated 2026).)
